From patent publication US6831075B2, “Heterocyclic substituted pyrazolones” (Cephalon, Inc., priority 1999, dated 2004)

These compounds were tested against T1, baculoviral GST-MLK2KDLZ (Homo sapiens, UniProt Q02779) (assay: Mixed Lineage Kinase-2 inhibition assay (Millipore Multiscreen plate, 32P)). Details: 1 uM compound; 100 μM ATP.
T1 construct: 3 μg/ml of baculoviral GST-MLK2KDLZ; GST (N); host or cells: baculovirus expression system
Assay type: biochemical
Procedure: Inhibition of Mixed Lineage Kinase-2 Activity
Assays were performed using the Millipore Multiscreen plate format as described for MLK1. Each 50-μl assay mixture contained 20 mM Hepes, pH 7, 1 mM EGTA, 10 mM MgCl2, 1 mM DTT, 25 mM β-glycerophosphate, 100 μM ATP, 0.25 μCi [γ-^32P]ATP, 0.1% BSA, 500 μg/ml myelin basic protein (UBI #13-104), 2% DMSO, various concentrations of test compound, and 3 μg/ml of baculoviral GST-MLK2KDLZ. Samples were incubated for 15 min. at 37° C. The reaction was stopped by adding ice cold 50% TCA and the proteins were allowed to precipitate for 30 min at 4° C. The plates were then washed with ice cold 25% TCA Supermix scintillation cocktail was added, and the plates were allowed to equilibrate for 1-2 hours prior to counting.

T1 sequence (Q02779 98-440 limits assumed): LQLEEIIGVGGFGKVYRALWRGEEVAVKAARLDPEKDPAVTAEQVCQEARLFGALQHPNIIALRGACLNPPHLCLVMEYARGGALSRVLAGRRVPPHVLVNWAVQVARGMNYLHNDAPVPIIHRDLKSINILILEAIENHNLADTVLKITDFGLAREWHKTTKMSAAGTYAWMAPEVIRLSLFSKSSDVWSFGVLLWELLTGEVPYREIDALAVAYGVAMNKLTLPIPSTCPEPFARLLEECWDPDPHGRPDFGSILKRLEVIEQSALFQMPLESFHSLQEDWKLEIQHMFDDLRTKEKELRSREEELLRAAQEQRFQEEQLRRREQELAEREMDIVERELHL

Compound	MLK-2 Kinase % inhibition @ 1 uM [%]
O=C1NN=C(c2ccco2)C1=Cc1ncc[nH]1 [Compound 54]	−48
O=C1NN=C(c2ccoc2)C1=Cc1c[nH]c2ccc(Cl)cc12 [Compound 17]	−8
Cc1nc(C)c(C2=NNC(=O)C2=Cc2c[nH]c3ccccc23)s1 [Compound 13]	−17
O=C1NN=C(c2cccs2)C1=Cc1c[nH]c2ccccc12 [Compound 62]	−21
O=C1NN=C(c2ccco2)C1=Cc1c[nH]c2ccc(F)cc12 [Compound 48]	3
Cc1ccc2c(C=C3C(=O)NN=C3c3ccco3)c[nH]c2c1 [Compound 46]	2
O=C1NN=C(c2ccoc2)C1=Cc1ncc[nH]1 [Compound 15]	−12
Cc1cc(C)c(C=C2C(=O)NN=C2c2sc(C)nc2C)[nH]1 [Compound 14]	−18
O=C1NN=C(c2cccs2)C1=Cc1cn(Cc2ccccc2)c2ccccc12 [Compound 75]	−5
Cc1oc(-c2ccc(Cl)cc2)cc1C1=NNC(=O)C1=Cc1c[nH]c2ccccc12 [Compound 42]	−10
O=C1NN=C(c2ccoc2)C1=Cc1c[nH]c2ccccc12 [Compound 9]	15
Cc1cc(C)c(C=C2C(=O)NN=C2c2ccccn2)[nH]1 [Compound 30]	1

Same assay, conditions: 1 uM compound; 100 μM ATP; read-out: MLK-2 Kinase % inhibition @ 1 uM

Compound	inhibition at 1 µM [%]
Cc1cc(C)c(C=C2C(=O)NN=C2c2cc3ccccc3o2)[nH]1 [Compound 57, 3-benzo[d]furan-2-yl-4-[(3,5-dimethylpyrrol-2-yl)methylene]-2-pyrazolin-5-one]	5
O=C1NN=C(c2cccs2)C1=Cc1c[nH]c2ccccc12 [Compound 38, 4-(indol-3-ylmethylene)-3-(2-thienyl)-2-pyrazolin-5-one]	2
Cc1cc(C)c(C=C2C(=O)NN=C2c2nccs2)[nH]1 [Compound 26, 4-[(3,5-dimethylpyrrol-2-yl)methylene]-3-(1,3-thiazol-2-yl)-2 pyrazolin-5-one]	-7

What follows are compounds tested against T2, recombinant human baculovirus-expressed FGFR1 cytoplasmic domain (Homo sapiens, UniProt P11362) (assay: FGFR1 kinase inhibition assay (ELISA-based, time-resolved fluorescence)). Details: 1 uM compound; 20 μM ATP.
T2 construct: recombinant human baculovirus-expressed FGFR1 cytoplasmic domain; host or cells: baculovirus expression system
T2 sequence (P11362 398-822 limits assumed): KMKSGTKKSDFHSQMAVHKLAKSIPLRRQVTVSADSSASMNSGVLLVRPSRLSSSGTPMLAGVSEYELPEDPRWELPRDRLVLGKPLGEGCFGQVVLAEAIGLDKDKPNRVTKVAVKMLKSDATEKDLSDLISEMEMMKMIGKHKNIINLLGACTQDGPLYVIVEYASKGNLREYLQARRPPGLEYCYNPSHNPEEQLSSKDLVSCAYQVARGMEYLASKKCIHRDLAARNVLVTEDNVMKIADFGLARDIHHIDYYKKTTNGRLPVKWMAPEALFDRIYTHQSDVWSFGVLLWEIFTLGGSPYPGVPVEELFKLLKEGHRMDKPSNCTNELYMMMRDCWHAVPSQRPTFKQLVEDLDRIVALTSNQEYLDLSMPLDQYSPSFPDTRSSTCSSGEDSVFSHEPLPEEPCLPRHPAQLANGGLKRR
Assay type: biochemical
Procedure: Inhibition of Fibroblast Growth Factor Receptor-1 (FGFR1) Kinase Activity
The FGFR1 kinase activity was measured using an ELISA-based format in a 96-well FluoroNUNC Maxisorp plate with a time-resolved fluorescence readout as described for trkA kinase. The plate was coated with 100 μl/well of substrate solution (recombinant human PLC-γ/GST) at a concentration of 10 μg/ml in Tris buffered saline (TBS). The FDGFR1 activity was assayed in 100-μl assay micture containing 50 mM HEPES (pH 7.4), 20 μM ATP, 10 mM MnCl2, 0.1% BSA, 2% DMSO, and 15 ng/ml recombinant human baculovirus-expressed FGFR1 cytoplasmic domain (prephosphorylated prior to use). Compounds were screened for inhibition of the FGFR1 kinase activity at a conentration of 1 μM. The kinase reaction was allowed to proceed at 37° C. for 15 minutes. The detection antibody, europium-labeled anti-phosphotyrosine antibody (Wallace #CR04-100), was added at 1:5000 dilution in block buffer (3% BSA in TBST). After a 1-hour incubation at 37° C., 100 μl of enhancement solution (Wallac #1244-105) and the plate was gently agitated. After 5 min, the fluorescence of the resulting solutions measured using the BMG Fluostar (Model # 403).

Compound	inhibition at 1 µM [%]	FGFR1 % inhibition @ 1 uM [%]
Cc1cc(C)c(C=C2C(=O)NN=C2c2cc3ccccc3o2)[nH]1 [Compound 57, 3-benzo[d]furan-2-yl-4-[(3,5-dimethylpyrrol-2-yl)methylene]-2-pyrazolin-5-one]	-2	
O=C1NN=C(c2cccs2)C1=Cc1c[nH]c2ccccc12 [Compound 38, 4-(indol-3-ylmethylene)-3-(2-thienyl)-2-pyrazolin-5-one]	28	
Cc1cc(C)c(C=C2C(=O)NN=C2c2nccs2)[nH]1 [Compound 26, 4-[(3,5-dimethylpyrrol-2-yl)methylene]-3-(1,3-thiazol-2-yl)-2 pyrazolin-5-one]	46	
O=C1NN=C(c2ccco2)C1=Cc1ncc[nH]1 [Compound 54]		45
O=C1NN=C(c2ccoc2)C1=Cc1c[nH]c2ccc(Cl)cc12 [Compound 17]		13
Cc1nc(C)c(C2=NNC(=O)C2=Cc2c[nH]c3ccccc23)s1 [Compound 13]		30
O=C1NN=C(c2cccs2)C1=Cc1c[nH]c2ccccc12 [Compound 62]		37
O=C1NN=C(c2ccco2)C1=Cc1c[nH]c2ccc(F)cc12 [Compound 48]		43
Cc1ccc2c(C=C3C(=O)NN=C3c3ccco3)c[nH]c2c1 [Compound 46]		25
O=C1NN=C(c2ccoc2)C1=Cc1ncc[nH]1 [Compound 15]		10
Cc1cc(C)c(C=C2C(=O)NN=C2c2sc(C)nc2C)[nH]1 [Compound 14]		22
O=C1NN=C(c2cccs2)C1=Cc1cn(Cc2ccccc2)c2ccccc12 [Compound 75]		26
Cc1oc(-c2ccc(Cl)cc2)cc1C1=NNC(=O)C1=Cc1c[nH]c2ccccc12 [Compound 42]		32
O=C1NN=C(c2ccoc2)C1=Cc1c[nH]c2ccccc12 [Compound 9]		17
Cc1cc(C)c(C=C2C(=O)NN=C2c2ccccn2)[nH]1 [Compound 30]		27

The compounds below were run against T3, baculoviral GST-MLK1KD (Homo sapiens, UniProt P80192) (assay: Mixed Lineage Kinase-1 inhibition assay (Millipore Multiscreen TCA in-plate, 32P)). Details: 1 uM compound; 60 μM ATP.
T3 construct: 1 μg/ml of baculoviral GST-MLK1KD; GST (N); host or cells: baculovirus expression system
T3 sequence (P80192 144-412 limits assumed): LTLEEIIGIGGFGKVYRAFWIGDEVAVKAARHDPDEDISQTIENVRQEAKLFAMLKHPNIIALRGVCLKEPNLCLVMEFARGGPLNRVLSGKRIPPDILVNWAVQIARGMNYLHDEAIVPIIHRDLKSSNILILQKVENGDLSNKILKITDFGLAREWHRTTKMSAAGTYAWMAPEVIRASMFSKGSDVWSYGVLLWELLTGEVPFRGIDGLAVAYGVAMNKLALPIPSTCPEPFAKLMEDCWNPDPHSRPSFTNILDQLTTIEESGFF
Assay type: biochemical
Procedure: Inhibition of Mixed Lineage Kinase-1 Activity
The kinase activity of MLK1 was assessed using the Millipore Multiscreen TCA “in-plate” format as described for protein kinase C (Pitt & Lee, J. Biomol. Screening, 1: 47-51, 1996). Briefly, each 50-μl assay mixture contained 20 mM Hepes, pH 7.0, 1 mM EGTA, 10 mM MgCl2, 1 mM DTT, 25 mM β-glycerophosphate, 60 μM ATP, 0.25 μCi [γ-^32P]ATP, 0.1% BSA, 500 μg/ml myelin basic protein (UBI #13-104), 2% DMSO, 1 μM of test compound, and 1 μg/ml of baculoviral GST-MLK1KD. Samples were incubated for 15 min at 37° C. The reaction was stopped by adding ice cold 50% TCA and the protein were allowed to precipitate for 30 min at 4° C. The plates were then washed with ice cold 25% TCA. Supermix scintillation cocktail was added, and the plates were allowed to equilibrate for 1-2 hours prior to counting using the Wallac MicroBeta 1450 PLUS scintillation counter.

Compound	MLK-1 Kinase % inhibition @ 1 uM [%]
O=C1NN=C(c2ccco2)C1=Cc1ncc[nH]1 [Compound 54]	−12
O=C1NN=C(c2ccoc2)C1=Cc1c[nH]c2ccc(Cl)cc12 [Compound 17]	6
Cc1nc(C)c(C2=NNC(=O)C2=Cc2c[nH]c3ccccc23)s1 [Compound 13]	10
O=C1NN=C(c2cccs2)C1=Cc1c[nH]c2ccccc12 [Compound 62]	15
O=C1NN=C(c2ccco2)C1=Cc1c[nH]c2ccc(F)cc12 [Compound 48]	2
Cc1ccc2c(C=C3C(=O)NN=C3c3ccco3)c[nH]c2c1 [Compound 46]	13
O=C1NN=C(c2ccoc2)C1=Cc1ncc[nH]1 [Compound 15]	−3
Cc1cc(C)c(C=C2C(=O)NN=C2c2sc(C)nc2C)[nH]1 [Compound 14]	8
O=C1NN=C(c2cccs2)C1=Cc1cn(Cc2ccccc2)c2ccccc12 [Compound 75]	5
Cc1oc(-c2ccc(Cl)cc2)cc1C1=NNC(=O)C1=Cc1c[nH]c2ccccc12 [Compound 42]	−9
O=C1NN=C(c2ccoc2)C1=Cc1c[nH]c2ccccc12 [Compound 9]	22
Cc1cc(C)c(C=C2C(=O)NN=C2c2ccccn2)[nH]1 [Compound 30]	2

Same assay, conditions: read-out: MLK-1 Kinase % inhibition @ 1 uM

Compound	inhibition at 1 µM [%]
Cc1cc(C)c(C=C2C(=O)NN=C2c2cc3ccccc3o2)[nH]1 [Compound 57, 3-benzo[d]furan-2-yl-4-[(3,5-dimethylpyrrol-2-yl)methylene]-2-pyrazolin-5-one]	44
O=C1NN=C(c2cccs2)C1=Cc1c[nH]c2ccccc12 [Compound 38, 4-(indol-3-ylmethylene)-3-(2-thienyl)-2-pyrazolin-5-one]	16
Cc1cc(C)c(C=C2C(=O)NN=C2c2nccs2)[nH]1 [Compound 26, 4-[(3,5-dimethylpyrrol-2-yl)methylene]-3-(1,3-thiazol-2-yl)-2 pyrazolin-5-one]	10
